Results: BindingDB's records for doi:10.1016/j.bmc.2008.11.012 (Nippon Shinyaku, 2009)

How the values were obtained:
Mu-type opioid receptor = Mu-type opioid receptor (Rattus norvegicus, UniProt P33535); experiment: Receptor Binding Assay
Protocol: (§1) Competitive binding displacement analysis was performed with membranes prepared from CHO-K1 cells stably expressing receptors. After incubation, samples were collected on GF/B glass-fiber, washed, and counted for radioactivity. IC50 values were obtained by fitting the competition binding curves according to a 4-parameter logistic model. Inhibition constants Ki were derived from the Cheng-Prusoff equation.

Nociceptin receptor = Nociceptin receptor (Homo sapiens, UniProt P41146); experiment: Receptor Binding Assay; conditions: pH 7.8; 25 °C
Protocol: as §1

Chain of Nociceptin receptor (P41146 whole entry): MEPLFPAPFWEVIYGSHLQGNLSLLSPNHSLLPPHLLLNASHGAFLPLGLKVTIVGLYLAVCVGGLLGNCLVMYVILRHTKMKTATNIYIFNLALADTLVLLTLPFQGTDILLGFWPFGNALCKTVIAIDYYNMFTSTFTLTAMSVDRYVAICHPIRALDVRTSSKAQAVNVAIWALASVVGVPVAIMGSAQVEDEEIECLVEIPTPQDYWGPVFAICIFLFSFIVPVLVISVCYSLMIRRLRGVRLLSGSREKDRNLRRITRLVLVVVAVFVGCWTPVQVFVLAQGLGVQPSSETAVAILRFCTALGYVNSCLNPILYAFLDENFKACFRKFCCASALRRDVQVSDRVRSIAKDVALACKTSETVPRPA
Chain of Mu-type opioid receptor (P33535 whole entry): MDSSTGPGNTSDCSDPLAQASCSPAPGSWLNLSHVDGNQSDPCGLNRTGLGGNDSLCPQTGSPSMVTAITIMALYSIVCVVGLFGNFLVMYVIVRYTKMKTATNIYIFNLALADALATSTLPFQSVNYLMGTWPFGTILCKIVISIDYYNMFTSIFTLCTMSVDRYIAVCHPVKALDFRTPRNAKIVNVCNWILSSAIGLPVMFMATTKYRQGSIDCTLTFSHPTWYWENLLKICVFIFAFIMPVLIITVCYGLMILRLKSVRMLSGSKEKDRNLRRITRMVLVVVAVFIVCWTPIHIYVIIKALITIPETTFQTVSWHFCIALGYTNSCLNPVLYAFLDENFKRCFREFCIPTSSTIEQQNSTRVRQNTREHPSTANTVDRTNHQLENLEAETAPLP

Row | Compound | Ki (Mu-type opioid receptor) | Ki (Nociceptin receptor)
1 | Cc1ccc2nc(C=Cc3ccc(Cl)cc3)nc(N[C@H]3CC[C@@H](N=C(N)N)CC3)c2c1 [4-({2-[(E)-2-(4-chlorophenyl)ethenyl]-6-methylquinazolin-4-yl}amino)cyclohexane-1-guanidine] | 60 nM | 152 nM
2 | Cc1ccc2nc(C=Cc3ccc(Cl)cc3)nc(N[C@H]3CCCC[C@H]3NC(=N)N)c2c1 (racemic) [(1R,2S)-2-({2-[(E)-2-(4-chlorophenyl)ethenyl]-6-methylquinazolin-4-yl}amino)cyclohexane-1-guanidine] | 220 nM | 43 nM
